Laboratory results from ChEMBL document CHEMBL1201862, “PubChem BioAssay data set” (2004).
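Cells were grown in 96-well plates and exposed to each compound for 48 hours at five concentrations; endpoints were interpolated linearly between bracketing concentrations, or set to the highest concentration if not reached. Here, GI50 denotes the concentration required for 50% inhibition of growth.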 Activity calls are given as the source filed them. No stated cut-off is given here; in the data, active = GI50 up to about 1.1 µM and inactive = higher.

Key:
Experiment in all cases: inhibition of tumour cell growth, NCI panel, 48 h
HL-60 = test system: HL-60
BT-549 = test system: BT-549
OVCAR-3 = test system: OVCAR-3
HT-29 = test system: HT-29
ACHN = test system: ACHN
786-0 = test system: 786-0
OVCAR-4 = test system: OVCAR-4
UO-31 = test system: UO-31
SK-OV-3 = test system: SK-OV-3
UACC-62 = test system: UACC-62
SR = test system: SR
RPMI-8226 = test system: RPMI-8226
T47D = test system: T47D
DU-145 = test system: DU-145
Malme-3M = test system: Malme-3M
SW-620 = test system: SW-620
NCI-H522 = test system: NCI-H522
KM12 = test system: KM12
CCRF-CEM = test system: CCRF-CEM
MCF7 = test system: MCF7

C=C1C(=O)O[C@@H]2[C@H]1C[C@H](I)[C@@]1(C)CC[C@H](O1)[C@](C)(I)CCCC(C)[C@@H]2O (stereo not given in full)
GI50 (HL-60): 1.31 µM (inactive)
GI50 (BT-549): 7.23 µM (inactive)
GI50 (OVCAR-3): 2.64 µM (inactive)
GI50 (HT-29): 1.93 µM (inactive)
GI50 (ACHN): 1.79 µM (inactive)
GI50 (786-0): 1.49 µM (inactive)
GI50 (OVCAR-4): 6.32 µM (inactive)
GI50 (UO-31): 3.66 µM (inactive)
GI50 (SK-OV-3): 16.6 µM (inactive)
GI50 (UACC-62): 4.92 µM (inactive)
GI50 (SR): 2 µM (inactive)
GI50 (RPMI-8226): 2.61 µM (inactive)
GI50 (T47D): 3.79 µM (inactive)
GI50 (DU-145): 6.19 µM (inactive)
GI50 (Malme-3M): 2.48 µM (inactive)
GI50 (SW-620): 1.81 µM (inactive)
GI50 (NCI-H522): 0.311 µM (active)
GI50 (KM12): 9.04 µM (inactive)
GI50 (CCRF-CEM): 0.384 µM (active)
GI50 (MCF7): 2.29 µM (inactive)

CC(=O)O[C@H]1C(=O)[C@@]2(C)[C@H]([C@H](OC(=O)c3ccccc3)[C@]3(O)C[C@H](OC(=O)[C@H](O)[C@@H](NC(=O)c4cccc(N=[N+]=[N-])c4)c4ccccc4)C(C)=C1C3(C)C)[C@]1(OC(C)=O)CO[C@@H]1C[C@@H]2O
GI50 (HL-60): < 0.0025 µM (active)
GI50 (BT-549): 0.0364 µM (active)
GI50 (OVCAR-3): < 0.0025 µM (active)
GI50 (HT-29): < 0.0025 µM (active)
GI50 (ACHN): 0.327 µM (active)
GI50 (786-0): 0.0179 µM (active)
GI50 (OVCAR-4): 6.05 µM (inactive)
GI50 (UO-31): 1.33 µM (inactive)
GI50 (SK-OV-3): 0.0122 µM (active)
GI50 (UACC-62): 0.00731 µM (active)
GI50 (SR): < 0.0025 µM (active)
GI50 (RPMI-8226): < 0.0025 µM (active)
GI50 (T47D): 0.0338 µM (active)
GI50 (DU-145): 0.0208 µM (active)
GI50 (Malme-3M): 0.00711 µM (active)
GI50 (SW-620): 0.00621 µM (active)
GI50 (NCI-H522): 0.00307 µM (active)
GI50 (KM12): 0.0038 µM (active)
GI50 (CCRF-CEM): 0.00331 µM (active)
GI50 (MCF7): < 0.0025 µM (active)

O=C1Oc2ccccc2C1C/C(=N\Nc1ccccc1)c1ccccc1O (stereo not given)
GI50 (HL-60): 34.2 µM (inactive)
GI50 (BT-549): 28.6 µM (inactive)
GI50 (OVCAR-3): 32.8 µM (inactive)
GI50 (HT-29): 28.4 µM (inactive)
GI50 (ACHN): 16.6 µM (inactive)
GI50 (786-0): 36.1 µM (inactive)
GI50 (OVCAR-4): 32.7 µM (inactive)
GI50 (UO-31): 23.3 µM (inactive)
GI50 (SK-OV-3): 62.1 µM (inactive)
GI50 (UACC-62): 33.9 µM (inactive)
GI50 (SR): 27.4 µM (inactive)
GI50 (RPMI-8226): 45.2 µM (inactive)
GI50 (T47D): 11.3 µM (inactive)
GI50 (DU-145): 40.7 µM (inactive)
GI50 (Malme-3M): 41.3 µM (inactive)
GI50 (SW-620): 29.9 µM (inactive)
GI50 (NCI-H522): 38.2 µM (inactive)
GI50 (KM12): 7.46 µM (inactive)
GI50 (CCRF-CEM): 62.1 µM (inactive)
GI50 (MCF7): 36.5 µM (inactive)

CC(=O)CC12NC(=O)N(C)N=C1N(C)C(=O)N(C)C2=O (stereo not given)
GI50 (HL-60): 25.9 µM (inactive)
GI50 (BT-549): > 100 µM (inactive)
GI50 (OVCAR-3): 34.8 µM (inactive)
GI50 (HT-29): 35.9 µM (inactive)
GI50 (ACHN): 74.6 µM (inactive)
GI50 (786-0): 91 µM (inactive)
GI50 (OVCAR-4): 71.8 µM (inactive)
GI50 (UO-31): > 100 µM (inactive)
GI50 (SK-OV-3): > 100 µM (inactive)
GI50 (UACC-62): 23.9 µM (inactive)
GI50 (SR): 63.7 µM (inactive)
GI50 (RPMI-8226): 58.1 µM (inactive)
GI50 (T47D): 30.8 µM (inactive)
GI50 (DU-145): > 100 µM (inactive)
GI50 (Malme-3M): 13.4 µM (inactive)
GI50 (SW-620): 33.9 µM (inactive)
GI50 (NCI-H522): 37.7 µM (inactive)
GI50 (KM12): 52.8 µM (inactive)
GI50 (CCRF-CEM): 39.2 µM (inactive)
GI50 (MCF7): 41.8 µM (inactive)

Cc1nc2ccccc2c(=O)n1NC(=S)Nc1ccc(Cl)cc1[N+](=O)[O-]
GI50 (HL-60): > 100 µM (inactive)
GI50 (BT-549): > 100 µM (inactive)
GI50 (OVCAR-3): > 100 µM (inactive)
GI50 (HT-29): > 100 µM (inactive)
GI50 (ACHN): > 100 µM (inactive)
GI50 (786-0): > 100 µM (inactive)
GI50 (OVCAR-4): > 100 µM (inactive)
GI50 (UO-31): > 55.5 µM (inactive)
GI50 (SK-OV-3): > 100 µM (inactive)
GI50 (UACC-62): > 100 µM (inactive)
GI50 (SR): > 100 µM (inactive)
GI50 (RPMI-8226): > 100 µM (inactive)
GI50 (T47D): > 100 µM (inactive)
GI50 (DU-145): > 100 µM (inactive)
GI50 (Malme-3M): > 100 µM (inactive)
GI50 (SW-620): > 100 µM (inactive)
GI50 (NCI-H522): > 100 µM (inactive)
GI50 (KM12): > 100 µM (inactive)
GI50 (CCRF-CEM): > 100 µM (inactive)
GI50 (MCF7): > 100 µM (inactive)

NNC(=O)c1ccccc1Nc1nc(-c2cccs2)nc2ccc(Br)cc12
GI50 (HL-60): 71.3 µM (inactive)
GI50 (BT-549): 84.1 µM (inactive)
GI50 (OVCAR-3): 25.9 µM (inactive)
GI50 (HT-29): 78.5 µM (inactive)
GI50 (ACHN): > 100 µM (inactive)
GI50 (786-0): 49.5 µM (inactive)
GI50 (OVCAR-4): 6.7 µM (inactive)
GI50 (UO-31): > 100 µM (inactive)
GI50 (SK-OV-3): > 100 µM (inactive)
GI50 (UACC-62): > 100 µM (inactive)
GI50 (SR): > 100 µM (inactive)
GI50 (RPMI-8226): > 100 µM (inactive)
GI50 (T47D): 47.8 µM (inactive)
GI50 (DU-145): > 100 µM (inactive)
GI50 (Malme-3M): > 100 µM (inactive)
GI50 (SW-620): > 100 µM (inactive)
GI50 (NCI-H522): > 100 µM (inactive)
GI50 (KM12): 67.5 µM (inactive)
GI50 (CCRF-CEM): > 100 µM (inactive)
GI50 (MCF7): 49.5 µM (inactive)

C/C(=N/NC(=S)Nc1ccccc1Cl)c1ccccn1
GI50 (HL-60): < 0.0113 µM (active)
GI50 (BT-549): 4.39 µM (inactive)
GI50 (OVCAR-3): 0.0136 µM (active)
GI50 (HT-29): < 0.01 µM (active)
GI50 (ACHN): 0.0402 µM (active)
GI50 (786-0): 0.0889 µM (active)
GI50 (OVCAR-4): 0.249 µM (active)
GI50 (UO-31): 0.583 µM (active)
GI50 (SK-OV-3): 0.043 µM (active)
GI50 (UACC-62): 0.173 µM (active)
GI50 (SR): < 0.0139 µM (active)
GI50 (RPMI-8226): < 0.0149 µM (active)
GI50 (T47D): < 0.0371 µM (active)
GI50 (DU-145): 1.06 µM (active)
GI50 (Malme-3M): 0.429 µM (active)
GI50 (SW-620): < 0.0168 µM (active)
GI50 (NCI-H522): 1.11 µM (active)
GI50 (KM12): 0.0705 µM (active)
GI50 (CCRF-CEM): < 0.01 µM (active)
GI50 (MCF7): < 0.0119 µM (active)

N#Cc1c(C#N)c(-c2ccco2)n(/N=C/c2ccco2)c1N
GI50 (HL-60): > 100 µM (inactive)
GI50 (BT-549): 22.8 µM (inactive)
GI50 (OVCAR-3): > 100 µM (inactive)
GI50 (HT-29): > 100 µM (inactive)
GI50 (ACHN): > 100 µM (inactive)
GI50 (786-0): 33.2 µM (inactive)
GI50 (OVCAR-4): 76.9 µM (inactive)
GI50 (UO-31): > 100 µM (inactive)
GI50 (SK-OV-3): 43.3 µM (inactive)
GI50 (UACC-62): > 100 µM (inactive)
GI50 (SR): 26.1 µM (inactive)
GI50 (RPMI-8226): > 100 µM (inactive)
GI50 (T47D): 2.93 µM (inactive)
GI50 (DU-145): 39 µM (inactive)
GI50 (Malme-3M): > 100 µM (inactive)
GI50 (SW-620): > 100 µM (inactive)
GI50 (NCI-H522): > 100 µM (inactive)
GI50 (KM12): > 100 µM (inactive)
GI50 (CCRF-CEM): > 100 µM (inactive)
GI50 (MCF7): 6.5 µM (inactive)
